The source of these data is patent US10227323B2, “Glucosylceramide synthase inhibitors for the treatment of diseases” (BIOMARIN PHARMACEUTICAL INC., priority 2013, dated 2019).

In general, IC50 refers to the point on the concentration scale where inhibition reaches its midpoint.

The first test deals with T1, GCS (Canis lupus familiaris, UniProt A0A8I3MXG6).
T1 sequence (A0A8I3MXG6 1-394): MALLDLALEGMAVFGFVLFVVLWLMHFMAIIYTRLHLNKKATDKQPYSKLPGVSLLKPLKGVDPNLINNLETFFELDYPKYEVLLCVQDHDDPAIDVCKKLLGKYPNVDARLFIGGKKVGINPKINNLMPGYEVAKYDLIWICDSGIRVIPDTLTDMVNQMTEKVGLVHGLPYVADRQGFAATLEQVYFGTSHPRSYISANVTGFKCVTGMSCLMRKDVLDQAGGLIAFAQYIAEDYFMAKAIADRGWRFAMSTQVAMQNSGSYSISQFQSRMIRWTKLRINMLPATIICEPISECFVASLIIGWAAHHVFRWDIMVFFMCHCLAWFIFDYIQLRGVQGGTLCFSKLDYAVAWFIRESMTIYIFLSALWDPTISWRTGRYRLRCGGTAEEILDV
Kind of test: Assay 1: GCS Enzymatic Assay (MDCK cell lysate, C6-NBD-Ceramide, LC/MS). It is filed as biochemical, canine. The settings on record: Table 2; data without asterisk; read-out: IC50 (nM) generated from Assay 1. Summed up:
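LC/MS/MS measurement of glucosylceramide and NBD-ceramide after a 1 h, 37 °C reaction with 100 μM UDP-glucose and 10 μM C6-NBD-ceramide gave IC50s or percent inhibition.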
On to `C=C(C)c1ccc(-c2ccc(C(=O)C(=O)N[C@H](CN3CCCC3)[C@H](O)c3ccc(OC4CC4)c(Cl)c3)cc2)cc1` [Example 355, N-((1R,2R)-1-(3-chloro-4-cyclopropoxyphenyl)-1-hydroxy-3-(pyrrolidin-1-yl)propan-2-yl)-2-oxo-2-(4′-(prop-1-en-2-yl)-[1,1′-biphenyl]-4-yl)acetamide], for which the IC50 is under 50 nM.
`CC(C)(O)c1ccc(-c2ccc(C(=O)C(=O)N[C@H](CN3CCCC3)[C@H](O)c3cc(F)c4c(c3)OCCO4)cc2)cc1` [Example 356, N-((1R,2R)-1-(8-fluoro-2,3-dihydrobenzo[b][1,4]dioxin-6-yl)-1-hydroxy-3-(pyrrolidin-1-yl)propan-2-yl)-2-(4′-(2-hydroxypropan-2-yl)-[1,1′-biphenyl]-4-yl)-2-oxoacetamide]: the IC50 was under 50 nM.
Still for that read-out and setting: then `CC(C)c1ccc(-c2ccc(C(=O)C(=O)N[C@H](CN3CCCC3)[C@H](O)c3cc(F)c4c(c3)OCCO4)cc2)cc1` [Example 357, N-((1R,2R)-1-(8-fluoro-2,3-dihydrobenzo[b][1,4]dioxin-6-yl)-1-hydroxy-3-(pyrrolidin-1-yl)propan-2-yl)-2-(4′-isopropyl-[1,1′-biphenyl]-4-yl)-2-oxoacetamide], with under 50 nM.
Regarding `CC(C)(O)c1ccc(-c2ccc(C(=O)C(=O)N[C@H](CN3CCCC3)[C@H](O)c3ccc(OC4CC4)c(Cl)c3)cc2)cc1` [Example 358, N-((1R,2R)-1-(3-chloro-4-cyclopropoxyphenyl)-1-hydroxy-3-(pyrrolidin-1-yl)propan-2-yl)-2-(4′-(2-hydroxypropan-2-yl)-[1,1′-biphenyl]-4-yl)-2-oxoacetamide], the IC50 was under 50 nM.
On the same count and under the same terms, then `O=C(N[C@H](CN1CCCC1)[C@H](O)c1ccc(OC2CC2)c(F)c1)C(=O)c1ccc(-c2ccc(Cl)s2)cc1` [Example 359, 2-(4-(5-chlorothiophen-2-yl)phenyl)-N-((1R,2R)-1-(4-cyclopropoxy-3-fluorophenyl)-1-hydroxy-3-(pyrrolidin-1-yl)propan-2-yl)-2-oxoacetamide], with under 50 nM.

Staying with this test, now noted: Table 3; MDCK cell lysate; read-out: IC50 (nM) generated from Assay 1.
As for `O=C(N[C@H](CN1CCCC1)[C@H](O)c1ccc(OC2CC2)c(Cl)c1)C(=O)c1cc2cc(Cl)ccc2s1` [Example 384, N-((1R,2R)-1-(3-chloro-4-cyclopropoxyphenyl)-1-hydroxy-3-(pyrrolidin-1-yl)propan-2-yl)-2-(5-chlorobenzo[b]thiophen-2-yl)-2-oxoacetamide], the IC50 was under 50 nM.
Still for that read-out and setting: then `O=C(N[C@H](CN1CCCC1)[C@H](O)c1ccc(OC2CC2)c(Cl)c1)C(=O)c1ccc(-n2ccnn2)cc1` [Example 385, 2-(4-(1H-1,2,3-triazol-1-yl)phenyl)-N-((1R,2R)-1-(3-chloro-4-cyclopropoxyphenyl)-1-hydroxy-3-(pyrrolidin-1-yl)propan-2-yl)-2-oxoacetamide], with 50 to 5000 nM; and `O=C(N[C@H](CN1CCCC1)[C@H](O)c1ccc(Cl)cc1)C(=O)c1cc2ccc(Cl)cc2s1` [Example 386, 2-(6-chlorobenzo[b]thiophen-2-yl)-N-((1R,2R)-1-(4-chlorophenyl)-1-hydroxy-3-(pyrrolidin-1-yl)propan-2-yl)-2-oxoacetamide], with 50 to 5000 nM; and `O=C(N[C@H](CN1CCC1)[C@H](O)c1ccc(OC2CC2)c(F)c1)C(=O)c1cc2cc(Cl)ccc2s1` [Example 387, N-((1R,2R)-3-(azetidin-1-yl)-1-(4-cyclopropoxy-3-fluorophenyl)-1-hydroxypropan-2-yl)-2-(5-chlorobenzo[b]thiophen-2-yl)-2-oxoacetamide], with under 50 nM.
`O=C(N[C@H](CN1CCCC1)[C@H](O)c1ccc(OC2CC2)cc1)C(=O)c1cc2ccccc2s1` [Example 388, 2-(benzo[b]thiophen-2-yl)-N-((1R,2R)-1-(4-cyclopropoxyphenyl)-1-hydroxy-3-(pyrrolidin-1-yl)propan-2-yl)-2-oxoacetamide]: the IC50 was under 50 nM.
Still for that read-out and setting: then `O=C(N[C@H](CN1CCCC1)[C@H](O)c1ccc(Cl)cc1)C(=O)c1ccc(-c2ccc(F)cc2)cc1` [Example 389, N-((1R,2R)-1-(4-chlorophenyl)-1-hydroxy-3-(pyrrolidin-1-yl)propan-2-yl)-2-(4′-fluoro-[1,1′-biphenyl]-4-yl)-2-oxoacetamide], with 50 to 5000 nM; and `O=C(N[C@H](CN1CCCC1)[C@H](O)c1ccc(OC2CC2)cc1)C(F)(F)CCc1ccc2ccccc2c1` [Example 390, N-((1R,2R)-1-(4-cyclopropoxyphenyl)-1-hydroxy-3-(pyrrolidin-1-yl)propan-2-yl)-2,2-difluoro-4-(naphthalen-2-yl)butanamide], with under 50 nM; and `O=C(N[C@H](CN1CCCC1)[C@H](O)c1ccc(OC2CC2)cc1)C(=O)c1cc2cc(Cl)ccc2s1` [Example 391, 2-(5-chlorobenzo[b]thiophen-2-yl)-N-((1R,2R)-1-(4-cyclopropoxyphenyl)-1-hydroxy-3-(pyrrolidin-1-yl)propan-2-yl)-2-oxoacetamide], with under 50 nM.
On the same count and under the same terms, then `O=C(N[C@H](CN1CCCC1)[C@H](O)c1ccc(OC2CC2)cc1)C(=O)c1ccc(-c2ccc(Cl)s2)cc1` [Example 392, 2-(4-(5-chlorothiophen-2-yl)phenyl)-N-((1R,2R)-1-(4-cyclopropoxyphenyl)-1-hydroxy-3-(pyrrolidin-1-yl)propan-2-yl)-2-oxoacetamide], with under 50 nM; and `O=C(N[C@H](CN1CCCC1)[C@H](O)c1ccc(OC2CC2)cc1)C(F)(F)c1ccc(-c2ccc(Cl)s2)cc1` [Example 393, 2-(4-(5-chlorothiophen-2-yl)phenyl)-N-((1R,2R)-1-(4-cyclopropoxyphenyl)-1-hydroxy-3-(pyrrolidin-1-yl)propan-2-yl)-2,2-difluoroacetamide], with under 50 nM.
Take `O=C(N[C@H](CN1CCCC1)[C@H](O)c1ccc(OC2CC2)cc1)C(F)(F)c1ccc(-c2ccc(F)cc2)cc1` [Example 394, N-((1R,2R)-1-(4-cyclopropoxyphenyl)-1-hydroxy-3-(pyrrolidin-1-yl)propan-2-yl)-2,2-difluoro-2-(4′-fluoro-[1,1′-biphenyl]-4-yl)acetamide]: the IC50 is under 50 nM.
For the compound `O=C(N[C@H](CN1CCCC1)[C@H](O)c1ccc(OC2CC2)c(F)c1)C(=O)c1ccc(C2CC2)cc1` [Example 395, N-((1R,2R)-1-(4-cyclopropoxy-3-fluorophenyl)-1-hydroxy-3-(pyrrolidin-1-yl)propan-2-yl)-2-(4-cyclopropylphenyl)-2-oxoacetamide], the IC50 is under 50 nM.
Take `O=C(N[C@H](CN1CCCC1)[C@H](O)c1ccc(OC2CC2)c(Cl)c1)C(F)(F)c1ccc(-c2ccc(Cl)s2)cc1` [Example 396, N-((1R,2R)-1-(3-chloro-4-cyclopropoxyphenyl)-1-hydroxy-3-(pyrrolidin-1-yl)propan-2-yl)-2-(4-(5-chlorothiophen-2-yl)phenyl)-2,2-difluoroacetamide]: the IC50 was under 50 nM.
With `O=C(N[C@H](CN1CCCC1)[C@H](O)c1ccc(OC2CC2)c(F)c1)C(F)(F)c1ccc(-c2ccc(Cl)s2)cc1` [Example 397, 2-(4-(5-chlorothiophen-2-yl)phenyl)-N-((1R,2R)-1-(4-cyclopropoxy-3-fluorophenyl)-1-hydroxy-3-(pyrrolidin-1-yl)propan-2-yl)-2,2-difluoroacetamide], the IC50 was under 50 nM.
Still for that read-out and setting: then `O=C(N[C@H](CN1CCCC1)[C@H](O)c1cc(F)c2c(c1)OCCO2)C(F)(F)c1ccc(-c2ccc(Cl)s2)cc1` [Example 398, 2-(4-(5-chlorothiophen-2-yl)phenyl)-2,2-difluoro-N-((1R,2R)-1-(8-fluoro-2,3-dihydrobenzo[b][1,4]dioxin-6-yl)-1-hydroxy-3-(pyrrolidin-1-yl)propan-2-yl)acetamide], with under 50 nM; and `O=C(N[C@H](CN1CCCC1)[C@H](O)c1ccc(OC2CC2)cc1)C(=O)c1cc2ccc(Cl)cc2s1` [Example 399, 2-(6-chlorobenzo[b]thiophen-2-yl)-N-((1R,2R)-1-(4-cyclopropoxyphenyl)-1-hydroxy-3-(pyrrolidin-1-yl)propan-2-yl)-2-oxoacetamide], with under 50 nM; and `O=C(N[C@H](CN1CCCC1)[C@H](O)c1ccc(OC2CC2)c(Cl)c1)C(=O)c1ccc(-n2cccn2)cc1` [Example 400, 2-(4-(1H-pyrazol-1-yl)phenyl)-N-((1R,2R)-1-(3-chloro-4-cyclopropoxyphenyl)-1-hydroxy-3-(pyrrolidin-1-yl)propan-2-yl)-2-oxoacetamide], with under 50 nM.
On to `C#Cc1ccc(C(=O)C(=O)N[C@H](CN2CCCC2)[C@H](O)c2ccc(OC3CC3)cc2)cc1` [Example 401, N-((1R,2R)-1-(4-cyclopropoxyphenyl)-1-hydroxy-3-(pyrrolidin-1-yl)propan-2-yl)-2-(4-ethynylphenyl)-2-oxoacetamide], for which the IC50 fell in the range of 50 to 5000 nM.
Still for that read-out and setting: as for `O=C(N[C@H](CN1CCCC1)[C@H](O)c1ccc(OC2CC2)cc1)C(F)(F)CCc1ccc2cc(Cl)ccc2c1` [Example 402, 4-(6-chloronaphthalen-2-yl)-N-((1R,2R)-1-(4-cyclopropoxyphenyl)-1-hydroxy-3-(pyrrolidin-1-yl)propan-2-yl)-2,2-difluorobutanamide], the figure is 50 to 5000 nM; as for `O=C(N[C@H](CN1CCCC1)[C@H](O)c1ccc(OC2CC2)c(Cl)c1)C(=O)c1ccc(-n2nccn2)cc1` [Example 403, 2-(4-(2H-1,2,3-triazol-2-yl)phenyl)-N-((1R,2R)-1-(3-chloro-4-cyclopropoxyphenyl)-1-hydroxy-3-(pyrrolidin-1-yl)propan-2-yl)-2-oxoacetamide], under 50 nM.
